Test results reported in PubChem BioAssay (NCI).
Values joined by “and” are separate entries in the source; they are usually repeats but may differ in a detail not shown here. Equal values may be shown once.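 Five concentrations, 48 hours, 96-well plates. Abbreviation: GI50, concentration required for 50% inhibition of growth. TGI: concentration producing complete growth inhibition.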

Columns and labels:
Experiment in all cases: inhibition of tumour cell growth, NCI panel, 48 h
[1] = system: SW-620 colon
[2] = system: IGROV1 ovarian
[3] = system: COLO 205 colon
[4] = system: CAKI-1 renal
[5] = system: XF 498 CNS
[6] = system: LOX IMVI melanoma
[7] = system: NCI-H23 lung
[8] = system: KM20L2 colon
[9] = system: LXFL 529 NSCLC
[10] = system: M19-MEL melanoma

SMILES | TGI [1] | TGI [2] | TGI [3] | TGI [4] | TGI [5] | TGI [6] | TGI [7] | TGI [8] | TGI [9] | TGI [10] | GI50 [1] | GI50 [2] | GI50 [3] | GI50 [4] | GI50 [10] | GI50 [5] | GI50 [6] | GI50 [7] | GI50 [8] | GI50 [9]
CCCCCCCCCCCCCCCCSS(C)(=O)=O | 13.2 µM | > 61.3 µM | 47.4 µM | 26.1 µM | 16.9 µM | 19.3 µM | > 75.8 µM | > 66.1 µM | 26.3 µM |  |  |  |  |  |  |  |  |  |  | 
CC(C)COC(=O)N1N=NC2C3CC(=O)C(O3)C21 (stereo not drawn) | > 100 µM | > 100 µM | > 100 µM | > 100 µM |  | > 100 µM | > 100 µM | > 100 µM | > 100 µM | > 100 µM |  |  |  |  |  |  |  |  |  | 
CO[C@H](C(=O)O[C@H]1C(=O)N2CCC3CCC1C32C)c1ccccc1 (stereo partly drawn) | > 100 µM | > 100 µM | > 100 µM | > 100 µM | > 100 µM | > 100 µM | > 100 µM | > 100 µM | > 100 µM | > 100 µM |  |  |  |  |  |  |  |  |  | 
C[C@]12CC[C@H](OC(=O)Cc3ccc(N(CCCl)CCCl)cc3)CC1CC[C@@H]1C2CC[C@]2(C)NC(=O)CCC12 (stereo partly drawn) | 24.7 µM | 30.5 µM | 18.4 µM | 15.3 µM | 28.3 µM | 27.2 µM | 35.4 µM | 23.7 µM | 25 µM | 28.8 µM |  |  |  |  |  |  |  |  |  | 
CC(=O)O[C@H]1CC[C@@]2(C)C(=CC[C@@H]3C2CC[C@]2(C)C(=O)NC(=O)CC32)C1 (stereo partly drawn) | > 100 µM | > 100 µM | > 100 µM | > 100 µM | > 100 µM | > 100 µM | > 100 µM | > 100 µM | > 100 µM | > 100 µM |  |  |  |  |  |  |  |  |  | 
CCN1C(=O)/C(=C\c2coc3ccccc3c2=O)SC1=S | > 100 µM | > 100 µM | > 100 µM | > 100 µM | > 100 µM | > 100 µM | > 100 µM | > 100 µM | > 100 µM | > 100 µM |  |  |  |  |  |  |  |  |  | 
CC[C@@]1(O)C(=O)OCc2c1cc1n(c2=O)Cc2cc3c([N+](=O)[O-])c(O)ccc3nc2-1 | 33.8 µM | 17.3 µM | 27.3 µM | 8.47 µM | 9.25 µM | 0.91 µM | 0.636 µM | 38.4 µM | > 100 µM | 11.9 µM | 0.416 µM | 1.04 µM | 3.56 µM | 0.0864 µM | 0.655 µM | 1.09 µM | 0.0552 µM | 0.0821 µM | 1.97 µM | 4.33 µM
CC1OC(OC23C(=O)CC(C)(O)CC2(O)C=CC2=C3C(=O)c3ccc(C4CC(OC5CCC(OC6CC(O)C(O)C(C)O6)C(C)O5)C(O)C(C)O4)c(O)c3C2=O)CCC1O (stereo not drawn) | 15.7 µM and 10.9 µM | 30.6 µM and 30.1 µM | 11.8 µM and 8.15 µM | 33.5 µM and 34.5 µM | 32.9 µM and 32.1 µM | 27.5 µM and 19.7 µM | 33.1 µM and 30.7 µM | 36.3 µM and 34.5 µM | 28.8 µM and 23.9 µM |  |  |  |  |  |  |  | 13.1 µM and 6.26 µM |  |  | 
